From patent publication US9012456B2, “Compounds, pharmaceutical compositions and uses thereof” (Boehringer Ingelheim International GmbH, priority 2012, dated 2015) come the findings set out here.

For the assay, the target named is T1, human GPR119 (Homo sapiens, UniProt Q8TDV5).
T1 construct: expressed in transfected cells
T1 sequence (Q8TDV5 1-335): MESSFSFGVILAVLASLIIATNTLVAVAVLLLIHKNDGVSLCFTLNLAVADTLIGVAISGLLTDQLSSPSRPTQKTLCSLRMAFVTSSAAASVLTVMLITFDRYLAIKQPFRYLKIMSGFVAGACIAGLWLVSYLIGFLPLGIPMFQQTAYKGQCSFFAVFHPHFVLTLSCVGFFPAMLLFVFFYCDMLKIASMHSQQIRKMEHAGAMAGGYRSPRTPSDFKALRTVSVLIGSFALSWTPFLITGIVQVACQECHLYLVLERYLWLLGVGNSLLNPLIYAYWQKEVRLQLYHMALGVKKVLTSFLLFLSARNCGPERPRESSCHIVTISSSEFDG
Description: AlphaScreen cAMP assay in Min-6/hGPR119 cells (activation of GPR119, stimulation of intracellular cAMP). Particulars: MIN6 cells stably transfected with human GPR119; 45 min incubation at room temperature; cAMP by AlphaScreen. The class given is cell-based. As for the experimental part:
The compounds of formula I according to the invention modulate the activity of the G-protein-coupled receptor GPR119. The effect of the compounds on the activation of GPR119 and on the stimulation of intracellular cAMP concentration is determined using the AlphaScreen cAMP Assay Kit (Cat. No. #6760625R) made by PerkinElmer.
MIN6 cells [Miyazaki J et al., Endocrinology. 1990 July; 127(1):126-32] are stably transfected with an expression vector for human GPR119 cDNA (Acc. No. NP_848566). Min-6/hGPR119 cells are cultured in DMEM, 10% FBS, 50 μM β-mercaptoethanol, 0.3 mg/mL Geniticin, 2 mM GlutaMAX at 37° C., 5% CO2. For the assay, the cells are seeded in Optiplates (white, 384-well, 160W-barcoded, TC, sterile with lid, Cat. No. #6007688 (Perkin Elmer); 10000 cells/well; 50 μL). The plates covered with lids are then incubated for 24 hours at 37° C., 5% CO2. After the medium is aspirated from the wells completely, 10 μl of the test compound are added, the compounds are diluted using stimulating buffer (140 mM NaCl, 3.6 mM KCl, 0.5 mM NaH2PO4, 0.5 mM MgSO4, 1.5 mM CaCl2, 10 mM Hepes, 5 mM NaHCO3; pH 7.4. 0.5 mM IBMX and 0.1% BSA, the final DMSO concentration is 1%). After 45 minutes incubation at room temperature (approx. 20° C.), the cAMP concentrations are determined using the AlphaScreen cAMP Assay Kit (Cat. No. #6760625R from PerkinElmer).
For orientation: EC50 means the concentration at which the effect is half-maximal. Read a low EC50 as an effect from little substance. With `CC(C)(C)OC(=O)N1CCC(c2cc3cc(-c4ccc(C#N)c(F)c4)ncc3o2)CC1` [Example 5, 4-[5-(4-Cyano-3-fluoro-phenyl)-furo[2,3-c]pyridin-2-yl]-piperidine-1-carboxylic acid tert-butyl ester], the concentration giving a half-maximal response (EC50) is 263 nM.

Turning to `CC(C)(F)CN1CCC(c2cc3cc(-c4ccc(S(C)(=O)=O)cc4F)ncc3o2)CC1` [Example 18, 5-(2-Fluoro-4-methanesulfonyl-phenyl)-2-[1-(2-fluoro-2-methyl-propyl)-piperidin-4-yl]-furo[2,3-c]pyridine], the EC50 was 79 nM.

Consider `CC(C)(C)OC(=O)N1CCC(c2cc3cc(-c4ccc(S(C)(=O)=O)cc4)ncc3o2)CC1` [Example 1, 4-[5-(4-Methanesulfonyl-phenyl)-furo[2,3-c]pyridin-2-yl]-piperidine-1-carboxylic acid tert-butyl ester], for which the concentration giving a half-maximal response (EC50) was determined as 58 nM.

As to `CC(C)(C)OC(=O)N1CCC(c2cc3cc(-c4ccc(CS(C)(=O)=O)cc4)ncc3o2)CC1` [Example 12, 4-[5-(4-Methanesulfonylmethyl-phenyl)-furo[2,3-c]pyridin-2-yl]-piperidine-1-carboxylic acid tert-butyl ester], a half-maximal effect (EC50) was put at 105 nM.

The compound `CS(=O)(=O)N1CC=C(c2cc3cc(C4CCN(c5nnc(C(F)(F)F)s5)CC4)oc3cn2)CC1` [Example 26, 5-(1-Methanesulfonyl-1,2,3,6-tetrahydro-pyridin-4-yl)-2-[1-(5-trifluoromethyl-[1,3,4]thiadiazol-2-yl)-piperidin-4-yl]-furo[2,3-c]pyridine] gave an EC50 of 18 nM.

Turning to `CC(C)(C)OC(=O)N1CCC(c2cc3cc(-c4cnco4)ncc3o2)CC1` [Example 10, 4-(5-Oxazol-5-yl-furo[2,3-c]pyridin-2-yl)-piperidine-1-carboxylic acid tert-butyl ester], the midpoint of the response, the EC50, lay at 592 nM.

Compound `CC(C)(C)OC(=O)N1CCC(c2cc3cc(-c4ccc(C(N)=O)cc4F)ncc3o2)CC1` [Example 7, 4-[5-(2-Fluoro-4-aminocarbonyl-phenyl)-furo[2,3-c]pyridin-2-yl]-piperidine-1-carboxylic acid tert-butyl ester] showed an EC50 of 108 nM.

Regarding `CC1(OC(=O)N2CCC(c3cc4cc(C5=CCN(S(C)(=O)=O)CC5)ncc4o3)CC2)CC1` [Example 22, 4-[5-(1-Methanesulfonyl-1,2,3,6-tetrahydro-pyridin-4-yl)-furo[2,3-c]pyridin-2-yl]-piperidine-1-carboxylic acid 1-methyl-cyclopropyl ester], the EC50 is 10 nM.

For `CCNC(=O)c1ccc(-c2cc3cc(C4CCN(C(=O)OC(C)(C)C)CC4)oc3cn2)cc1` [Example 6, 4-[5-(4-Ethylcarbamoyl-phenyl)-furo[2,3-c]pyridin-2-yl]-piperidine-1-carboxylic acid tert-butyl ester], the concentration for a half-maximal effect (EC50) stood at 45 nM.

`CC(C)(C)OC(=O)N1CCC(C)(c2cc3cc(C4=CCN(S(C)(=O)=O)CC4)ncc3o2)CC1` [Example 28, 4-[5-(1-Methanesulfonyl-1,2,3,6-tetrahydro-pyridin-4-yl)-furo[2,3-c]pyridin-2-yl]-4-methyl-piperidine-1-carboxylic acid tert-butyl ester]: the midpoint of the response, the EC50, lay at 73 nM.

For the compound `CC(C)(C)OC(=O)N1CCC(c2cc3cc(-c4ccc(C(=O)OCc5ccccc5)cc4)ncc3o2)CC1` [Example 9, 4-[5-(4-Benzyloxycarbonyl-phenyl)-furo[2,3-c]pyridin-2-yl]-piperidine-1-carboxylic acid tert-butyl ester], the EC50 stood at 567 nM.

In turn, `CC(C)(C)OC(=O)N1CCC(c2cc3cc(-c4ccc(NS(C)(=O)=O)cc4)ncc3o2)CC1` [Example 4, 4-[5-(4-Methanesulfonylamino-phenyl)-furo[2,3-c]pyridin-2-yl]-piperidine-1-carboxylic acid tert-butyl ester] gave a concentration for a half-maximal effect (EC50) of 121 nM.

On to `CC(C)(C)OC(=O)N1CCC(c2cc3cc(-c4ccc(S(C)(=O)=O)c(F)c4)ncc3o2)CC1` [Example 2, 4-[5-(3-Fluoro-4-methanesulfonyl-phenyl)-furo[2,3-c]pyridin-2-yl]-piperidine-1-carboxylic acid tert-butyl ester], for which the midpoint of the response, the EC50, lay at 62 nM.

`CC(C)OC(=O)N1CCC(c2cc3cc(C4=CCN(S(C)(=O)=O)CC4)ncc3o2)CC1` [Example 21, 4-[5-(1-Methanesulfonyl-1,2,3,6-tetrahydro-pyridin-4-yl)-furo[2,3-c]pyridin-2-yl]-piperidine-1-carboxylic acid isopropyl ester] had an EC50 of 19 nM.

For the compound `CC(C)OC(=O)N1CCC(c2cc3cc(-c4ccc(S(C)(=O)=O)cc4F)ncc3o2)CC1` [Example 19, 4-[5-(2-Fluoro-4-methanesulfonyl-phenyl)-furo[2,3-c]pyridin-2-yl]-piperidine-1-carboxylic acid isopropyl ester], the concentration giving a half-maximal response (EC50) was found to be 12 nM.

Turning to `CS(=O)(=O)N1CC=C(c2cc3cc(C4CCN(CC5(C(F)(F)F)CC5)CC4)oc3cn2)CC1` [Example 24, 5-(1-Methanesulfonyl-1,2,3,6-tetrahydro-pyridin-4-yl)-2-[1-(1-trifluoromethyl-cyclopropylmethyl)-piperidin-4-yl]-furo[2,3-c]pyridine], the EC50 was 28 nM.

Regarding `CCc1cnc(N2CCC(c3cc4cc(-c5ccc(S(C)(=O)=O)cc5F)ncc4o3)CC2)nc1` [Example 16, 2-[1-(5-Ethyl-pyrimidin-2-yl)-piperidin-4-yl]-5-(2-fluoro-4-methanesulfonyl-phenyl)-furo[2,3-c]pyridine], the midpoint of the response, the EC50, lay at 64 nM.

`CC1(OC(=O)N2CCC(c3cc4cc(-c5ccc(S(C)(=O)=O)cc5F)ncc4o3)CC2)CC1` [Example 20, 4-[5-(2-Fluoro-4-methanesulfonyl-phenyl)-furo[2,3-c]pyridin-2-yl]-piperidine-1-carboxylic acid 1-methyl-cyclopropyl ester]: the EC50 worked out at 13 nM.

On to `CS(=O)(=O)N1CC=C(c2cc3cc(C4CCN(c5ccc(C(F)(F)F)cn5)CC4)oc3cn2)CC1` [Example 23, 4-[5-(1-Methanesulfonyl-1,2,3,6-tetrahydro-pyridin-4-yl)-furo[2,3-c]pyridin-2-yl]-5′-trifluoromethyl-3,4,5,6-tetrahydro-2H-[1,2′]bipyridinyl], for which the EC50 is 86 nM.

On to `CC(C)(C)OC(=O)N1CCC(c2cc3cc(-c4ccncc4)ncc3o2)CC1` [Example 11, 4-(5-Pyridin-4-yl-furo[2,3-c]pyridin-2-yl)-piperidine-1-carboxylic acid tert-butyl ester], for which a half-maximal response (EC50) required 310 nM.

For `CC(C)(C)OC(=O)N1CCC(C)(c2cc3cc(-c4ccc(S(C)(=O)=O)cc4)ncc3o2)CC1` [Example 27, 4-[5-(4-Methanesulfonyl-phenyl)-furo[2,3-c]pyridin-2-yl]-4-methyl-piperidine-1-carboxylic acid tert-butyl ester], the EC50 turned out to be 140 nM.

As to `CC(C)(C)OC(=O)N1CCC(c2cc3cc(-c4ccc(C#N)cc4F)ncc3o2)CC1` [Example 8, 4-[5-(4-Cyano-2-fluoro-phenyl)-furo[2,3-c]pyridin-2-yl]-piperidine-1-carboxylic acid tert-butyl ester], the 50% effective concentration (EC50) came out at 281 nM.

Consider `CC(C)(C)OC(=O)N1CCC(c2cc3cc(-c4ccc(S(C)(=O)=O)cc4F)ncc3o2)CC1` [Example 3, 4-[5-(2-Fluoro-4-methanesulfonyl-phenyl)-furo[2,3-c]pyridin-2-yl]-piperidine-1-carboxylic acid tert-butyl ester], for which the 50% effective concentration (EC50) came to 9 nM.

In the case of `CC(C)(C)OC(=O)N1CCC(c2cc3cc(-c4ccncc4F)ncc3o2)CC1` [Example 15, 4-[5-(3-Fluoro-pyridin-4-yl)-furo[2,3-c]pyridin-2-yl]-piperidine-1-carboxylic acid tert-butyl ester], the midpoint of the response, the EC50, lay at 233 nM.

The compound `CC(C)(C)OC(=O)N1CCC(c2cc3cc(C4=CCN(S(C)(=O)=O)CC4)ncc3o2)CC1` [Example 14, 4-[5-(1-Methanesulfonyl-1,2,3,6-tetrahydro-pyridin-4-yl)-furo[2,3-c]pyridin-2-yl]-piperidine-1-carboxylic acid tert-butyl ester] displayed an EC50 of 9 nM.

Turning to `CS(=O)(=O)c1ccc(-c2cc3cc(C4CCN(CC5(C(F)(F)F)CC5)CC4)oc3cn2)c(F)c1` [Example 17, 5-(2-Fluoro-4-methanesulfonyl-phenyl)-2-[1-(1-trifluoromethyl-cyclopropylmethyl)-piperidin-4-yl]-furo[2,3-c]pyridine], the EC50 was determined as 51 nM.
